Measured values published in US4670460A, “Inhibiting lipoxygenase with pyrazolone derivatives” (Bayer Aktiengesellschaft, priority 1983, dated 1987).

Tests used:
lipoxygenase [1] = target: T1, lipoxygenase (Homo sapiens, UniProt P09917); experiment: Inhibition of LTB4 biosynthesis (lipoxygenase-inhibiting action) in human PMN leucocytes stimulated with ionophor A 23187; type: cell-based; conditions: 0.25 h; for inhibition at 10 µg/mL: concentration 10^-5 g/ml; for inhibition at 1 µg/mL: concentration 10^-6 g/ml
T1 construct: endogenous in cells; host or cells: human PMN leucocytes isolated from heparinized blood
T1 sequence (P09917 1-674): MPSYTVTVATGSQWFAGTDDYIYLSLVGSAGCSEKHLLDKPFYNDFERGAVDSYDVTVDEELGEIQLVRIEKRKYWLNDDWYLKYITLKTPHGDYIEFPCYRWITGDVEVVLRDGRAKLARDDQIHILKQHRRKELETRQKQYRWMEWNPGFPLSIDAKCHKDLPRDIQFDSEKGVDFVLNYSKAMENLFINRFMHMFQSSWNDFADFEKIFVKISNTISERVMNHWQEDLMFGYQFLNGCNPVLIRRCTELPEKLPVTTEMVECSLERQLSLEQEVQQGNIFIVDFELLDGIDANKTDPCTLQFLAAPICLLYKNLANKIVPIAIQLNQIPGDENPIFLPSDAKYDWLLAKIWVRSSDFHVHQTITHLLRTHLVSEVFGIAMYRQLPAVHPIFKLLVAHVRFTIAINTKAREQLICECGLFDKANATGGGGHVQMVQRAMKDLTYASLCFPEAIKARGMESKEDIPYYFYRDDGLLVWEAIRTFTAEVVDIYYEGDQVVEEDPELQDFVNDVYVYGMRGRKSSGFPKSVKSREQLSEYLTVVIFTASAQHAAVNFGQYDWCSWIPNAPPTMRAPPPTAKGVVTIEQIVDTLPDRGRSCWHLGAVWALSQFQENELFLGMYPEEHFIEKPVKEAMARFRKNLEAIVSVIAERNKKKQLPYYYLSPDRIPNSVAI
Procedure: The human PMN leucocytes (>95%) used in the present example were obtained from heparinized complete blood by dextran sedimentation and subsequent density gradient separation (Ficoll-Paque) (compare A. Boyum, Scand. J. Immunol., 5, Suppl. 5, 9, 1976).
2×10^7 cells/ml were suspended in Dulbecco phosphate buffer containing Ca^2+ and were incubated with radioactively labelled arachidonic acid and the calcium ionophor A 23187 in the presence or absence of lipoxygenase inhibitor. After 15 minutes, the labelled lipoxygenase products were extracted from the acidified incubation medium and were separated by thin layer chromatography using a mobile phase mixture suitable for the leukotrienes (5-HETE-LTB4) (compare B. Jakschik et al., Biochem. Biophys. Res. Commun., 102, 624, 1981).
The distribution of the activity amongst the various metabolites was measured by a thin layer scanner. It is a measure of the lipoxygenase-inhibiting action of a test substance at a certain concentration.
The lipoxygenase metabolites were also additionally determined independently by means of high pressure liquid chromatography. This method enables the endogenous arachidonic acid metabolism to be studied with the aid of UV detection of the leukotrienes. In this method, the cells were treated as described above, with the exception that no radioactively labelled arachidonic acid was added exogenously. The high pressure liquid chromatography was carried out on Lichrosorb RP-18 (5 μm) columns. The mobile phase was methanol/water/glacial acetic acid 69/31/0.01. The flow rate was 1 ml/minute. Leukotriene B4 was determined at 280 nm and the HETE derivatives were determined at 232 nm, in each case by means of UV absorption.

leucocytes = experiment: Leucocyte stickiness, hamster cheek pouch venule; type: in vivo, Syrian golden hamsters
Procedure: The number of leucocytes which pass a certain section of a vessel serves as a simple model for measuring the stickiness of leucocytes (Bray, M. A. et al., Prostaglandins 22, 213 (1981)). The number of leucocytes counted will be greater, the lower the stickiness of the cells.
The pyrazolone derivatives described below were investigated in this model.
Male Syrian golden hamsters (80-100 g) were anaesthetized with Nembutal (i.p.; 60 mg/kg). After insertion of a PE 10 catheter into the a. femoralis, the animal was laid on a Duling dissecting platform (MVR 5, 423 (1973)) and the right cheek pouch was withdrawn by inserting a Q-Tip. It was carefully drawn into the envisaged part of the platform, stretched and fixed.
From the start of the dissection, 5 ml/minute of Superfusat flowedover the prepared cheek pouch. The temperature of the solution was 36° C. While treating the vessels with care, the upper layer tissue was separated longitudinally and folded back to the side. Under about 200-fold magnification, an area of about 1 cm^2 of connective tissue was carefully exposed. The animal was placed on the object stand of a microscope, together with the dissecting platform. A thermocouple was inserted into the left cheek pouch. The body temperature of the animal was thus monitored and kept at 36±0.3° C. with the aid of an IR lamp (250 watt).
The leucocyte stickiness was measured at about 500-fold magnification. A venule (30-40 μm .phi.) was selected in the exposed area. The number of leucocytes per unit time (minutes) which migrate past a certain section of this vessel were counted.
Intra-arterial administration of the pyrazolone derivatives in 1% strength aqueous Tylose suspension led to the following results: […]

[2] = Antithrombotic action (prophylaxis of thromboses); type: in vivo; conditions: dose increased 100 times in comparison with nafazatrom
[3] = system: 15-hydroxyprostaglandin dehydrogenase; conditions: Wong and McGiff 1982; cited from earlier work
[4] = system: endogenous prostacyclin (PGI2) from the vascular endothelium; conditions: Vermylen 1979, Chamone 1981, McIntyre and Salzman 1981; cited from earlier work
lipoxygenase [5] = conditions: Busse et al. 1982; cited from earlier work

Structure (SMILES) | inhibition at 10 µg/mL (lipoxygenase [1]) | inhibition at 1 µg/mL (lipoxygenase [1]) | further results
CCC1C(=O)N(CCOc2ccc3c(Br)cccc3c2)N=C1C (stereo not drawn) [Compound 5] | – | – | Duration of action (leucocytes; dose 1 mg/kg intra-arterial): 30 to 50 min; Increase in Leucocyte number (%) (leucocytes; dose 1 mg/kg intra-arterial): 200%
CC1=NN(CCOc2ccc3ccccc3c2)C(=O)C1C1C(=O)N(CCOc2ccc3ccccc3c2)N=C1C (stereo not drawn) | 50% | – | –
CCC1C(=O)N(CCOc2ccc3c(Br)cccc3c2)N=C1C (stereo not drawn) [drawing 20] | 100% | 100% | –
CC1=NN(CCOc2ccccc2-c2ccccc2)C(=O)C1 [Compound 4] | – | – | Duration of action (leucocytes; dose 0.1 mg/kg intra-arterial): 40 min; Increase in Leucocyte number (%) (leucocytes; dose 0.1 mg/kg intra-arterial): 35%
CC1=NN(CCc2cccc3ccccc23)C(=O)C1 [Compound 6] | – | – | Duration of action (leucocytes; dose 1 mg/kg intra-arterial): 20 to 30 min; Increase in Leucocyte number (%) (leucocytes; dose 1 mg/kg intra-arterial): 30%
Cc1cc(OC(=O)c2ccc3ccccc3c2)n(C(C)c2ccc(Cl)c(Cl)c2)n1 (stereo not drawn) | 46% | – | –
CC1=NN(CCOc2ccccc2-c2ccccc2)C(=O)C1 [drawing 18] | 100% | 75% | –
CC1=NN(CCOc2ccc(Cl)c(C)c2)C(=O)C1 | 100% | 43% | –
CCC1=NN(CCOc2ccc3c(Br)cccc3c2)C(=O)C1C (stereo not drawn) | 100% | 100% | –
Cc1cc(OC(=O)c2ccc(Cl)cc2)n(C(C)c2ccc(Cl)c(Cl)c2)n1 (stereo not drawn) | 80% | – | –
CC1=NN(C(C)c2ccc(Cl)c(Cl)c2)C(=O)C1Cc1ccccc1 (stereo not drawn) | 100% | – | –
CC1=NN(CCOc2ccc3ccccc3c2)C(=O)C1C (stereo not drawn) [3,4-dimethyl derivative] | – | – | Effect in the prophylaxis of thromboses [2]: no effect can be detected
O=C1CC(Cc2ccccc2)=NN1CCOc1ccc2ccccc2c1 [Compound 3-benzyl] | – | – | Effect in the prophylaxis of thromboses [2]: no effect can be detected
CC1=NN(CCc2cccc3ccccc23)C(=O)C1 [drawing 28] | 100% | 58% | –
CC(C)C1=NN(CCOc2ccc3ccccc3c2)C(=O)C1 [Compound 3-isopropyl] | – | – | Effect in the prophylaxis of thromboses [2]: no effect can be detected
O=C1CC(C2CCCCC2)=NN1CCCc1ccccc1 | 100% | 71% | –
CCCC1=NN(CCOc2ccc3ccccc3c2)C(=O)C1 [Compound 3-n-propyl] | – | – | Effect in the prophylaxis of thromboses [2]: no effect can be detected
CC1=NN(CCOc2ccc3ccccc3c2)C(=O)C1 [nafazatrom, 3-methyl-1-[2-(2-naphthyloxy)-ethyl]-2-pyrazolin-5-one] | – | – | Blockade of 15-hydroxyprostaglandin dehydrogenase, the PGI2-degrading enzyme [3]: blocks; Stimulation of endogenous prostacyclin (PGI2) from the vascular endothelium [4]: can act as a stimulator; Inhibition of lipoxygenase activity (lipoxygenase [5]): inhibits lipoxygenase activity
CCCCC1C(=O)N(CCOc2ccc3c(Br)cccc3c2)N=C1C (stereo not drawn) | 100% | 68% | –
O=C1CC(c2ccccc2)=NN1CCCc1ccccc1 | 100% | 81% | –

Now from value to compound, other results behind:

inhibition at 10 µg/mL (lipoxygenase [1]) | inhibition at 1 µg/mL (lipoxygenase [1]) | Structure (SMILES) | further results
100% | 83% | CC1=NN(CCOc2ccc3ccccc3c2)C(=O)C1C (stereo not drawn) [drawing 22] | –
100% | 100% | CC(C)CC1=NN(CCOc2ccc3ccccc3c2)C(=O)C1 | –
93% | 40% | COCC1=NN(CCOc2ccc3ccccc3c2)C(=O)C1 | –
82% | 36% | CC(=O)OCC1=NN(CCOc2ccc3ccccc3c2)C(=O)C1 | –
100% | 62% | CC1=NN(CCOc2cccc3ccccc23)C(=O)C1 | –
100% | 58% | CC1=NN(CCOc2ccc3ccccc3c2)C(=O)C1 [drawing 34, reference compound] | –
100% | 93% | CCCCCCC1C(=O)N(CCOc2ccc3ccccc3c2)N=C1C (stereo not drawn) | –
80% | – | O=C1CC(CO)=NN1CCOc1ccc2ccccc2c1 | –
